Measured values: paper PMC9485191, “The ERK5/NF-κB signaling pathway targets endometrial cancer proliferation and survival” (Cellular and Molecular Life Sciences, 2022)

Assays:
[1] = system: C4-2 (prostate); assay: cells; design: MTT reduction cytotoxicity assay in human tumour cell lines; details: 48 h, MTT
Method: (§1) Cell viability was determined by MTT (3-(4,5-dimethyl-2-thiazolyl)-2,5-diphenyl-2H-tetrazolium Blue, Sigma) reduction assay. For clonogenic assays, cells were seeded in 6-well plates, treated for 14 days and stained with 0.5% crystal violet solution. Colonies with > 40 cells were counted. Cell proliferation was measured by cell counting assay, using a TC10TM automated cell counter (Bio-Rad, Hercules, CA, USA) using Trypan Blue. Cell viability was also determined using a LIVE/DEAD viability/cytotoxicity kit assay (ThermoFisher), as reported before. The above results prompted us to investigate the anticancer activity of ERK5 inhibition in EC. To do so, we used the endometrioid cancer cell lines Ishikawa and AN3CA cells (that carry PTEN deficiency and P53 mutation), as well as the more clinically aggressive non-endometrioid serous adenocarcinoma cell line ARK1 (PI3KCA mutation). In cell viability assays, JWG-071 induced cytotoxicity in the three EC cell lines tested, with IC50 values ranging 2–3 µM. In fact, JWG-071 induced cytotoxicity in a wide panel of cancer cells, including prostate, cervical, neuroblastoma, and glioblastoma cancers (Supplementary Fig. 4).

[2] = system: LN-18 (glioblastoma); assay: cells; design: MTT reduction cytotoxicity assay in human tumour cell lines; details: Homo sapiens, LN-18; 48 h, MTT
Method: as §1

[3] = system: Ishikawa (endometrial); assay: cells; design: MTT reduction cytotoxicity assay in human tumour cell lines; details: Homo sapiens, Ishikawa; 48 h, MTT
Method: as §1

[4] = system: IMR-32 (neuroblastoma); assay: cells; design: MTT reduction cytotoxicity assay in human tumour cell lines; details: Homo sapiens, IMR-32; 48 h, MTT
Method: as §1

[5] = system: SH-SY5Y (neuroblastoma); assay: cells; design: MTT reduction cytotoxicity assay in human tumour cell lines; details: Homo sapiens, SH-SY5Y; 48 h, MTT
Method: as §1

[6] = system: Hela (cervical); assay: cells; design: MTT reduction cytotoxicity assay in human tumour cell lines; details: Homo sapiens, HeLa; 48 h, MTT
Method: as §1

[7] = system: ARK1 (endometrial); assay: cells; design: MTT reduction cytotoxicity assay in human tumour cell lines; details: 48 h, MTT
Method: as §1

[8] = system: AN3CA (endometrial); assay: cells; design: MTT reduction cytotoxicity assay in human tumour cell lines; details: Homo sapiens, AN3-CA; 48 h, MTT
Method: as §1

[9] = biological target: T1, ERK5 (Homo sapiens, UniProt Q13164); assay: in vitro (cell-free) kinase assay at […] ATP ([…] at […] ATP); supported by inhibition of EGF-induced ERK5 phosphorylation in cells; assay type: biochemical
T1 construct: gene MAPK7
T1 sequence (Q13164 2-816): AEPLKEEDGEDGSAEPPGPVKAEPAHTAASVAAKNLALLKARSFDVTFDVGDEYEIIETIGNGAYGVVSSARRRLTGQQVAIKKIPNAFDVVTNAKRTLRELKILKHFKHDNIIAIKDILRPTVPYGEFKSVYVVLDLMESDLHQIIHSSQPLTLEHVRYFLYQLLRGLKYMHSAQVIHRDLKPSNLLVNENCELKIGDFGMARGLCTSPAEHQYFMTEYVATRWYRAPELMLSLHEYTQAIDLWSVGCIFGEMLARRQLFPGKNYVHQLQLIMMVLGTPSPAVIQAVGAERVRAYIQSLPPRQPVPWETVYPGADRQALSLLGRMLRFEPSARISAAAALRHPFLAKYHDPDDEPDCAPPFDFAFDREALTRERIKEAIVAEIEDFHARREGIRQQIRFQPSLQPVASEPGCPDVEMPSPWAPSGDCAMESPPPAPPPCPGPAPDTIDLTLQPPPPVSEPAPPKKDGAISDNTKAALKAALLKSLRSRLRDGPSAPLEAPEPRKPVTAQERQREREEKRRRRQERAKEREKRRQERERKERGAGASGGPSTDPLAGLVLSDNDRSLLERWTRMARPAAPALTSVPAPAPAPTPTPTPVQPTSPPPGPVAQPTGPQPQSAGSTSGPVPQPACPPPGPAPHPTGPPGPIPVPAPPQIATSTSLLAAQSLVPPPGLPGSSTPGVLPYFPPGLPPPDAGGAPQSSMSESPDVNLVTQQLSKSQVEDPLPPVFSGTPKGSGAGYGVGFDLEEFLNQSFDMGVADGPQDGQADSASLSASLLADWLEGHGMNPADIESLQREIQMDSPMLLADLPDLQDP

[10] = biological target: T1, ERK5; assay: biochemical; design: radiometric 32P-ATP kinase assay, active ERK5, PIMtide substrate, p81 paper, Cherenkov counting; details: 200 uM ATP
Text: Gene silencing Validated siRNAs targeting NEMO were from Sigma (ref. EHU032271) and ThermoFisher (ref. AM51331). Scrambled (control) siRNA was from ThermoFisher. siRNAs were transfected into cells using Lipofectamine-2000, following the manufacturer’s recommended protocol. The vectors encoding two different shRNAs targeting ERK5 were from Sigma (TRCN0000010262/pLKO.1; TRCN0000010275/pLKO.1). Lentiviral production is detailed at Supplementary Materials and Methods. In vitro ERK5 kinase activity assay A 40 μL reaction mixture was prepared containing 200 ng of pure active ERK5 (1) and the indicated amount of inhibitor in 50 mM Tris-HCl, pH 7.5, 0.1 mM EGTA, 1 mM 2-mercaptoethanol. […] Assays were carried out for 20 min at 30°C, terminated by applying the reaction mixture onto p81 paper, and the incorporated radioactivity measured by Cherenkov counting. Most of the ERK5 inhibitors developed so far, including JWG-071, are type I competitive inhibitors that target the ATP-binding site. […] Taking in account that the homeostatic levels of intracellular ATP range from 0.5 to 5 mM [31], it is very likely that ERK5 competitive inhibitors (such as JWG-071) should require µM concentrations to displace ATP from the active site in cells. […]

For `CCC(C)N1c2ccccc2C(=O)N(C)c2cnc(Nc3ccc(C(=O)N4CCC(N5CCN(C)CC5)CC4)cc3OC)nc21` (stereo not shown) [JWG-071], the IC50 [1] was 2200 ± 300 nM, the IC50 [2] was 2900 ± 400 nM and the IC50 [3] was 3200 ± 800 nM. For the same compound, the IC50 [4] was 1900 ± 300 nM, the IC50 [5] was 4200 ± 1400 nM and the IC50 [6] was 2900 ± 700 nM. The IC50 [7] was 2700 ± 200 nM, the IC50 [8] was 3300 ± 600 nM and the IC50 [9] was roughly 90 nM. It also gave an IC50 [10] of 572 ± 51 nM.
